Test results reported in US20050256161A1, “Melanin concentrating hormone receptor antagonists” (priority 2003, published 2005).
pIC50, pKi: −log10 of the molar value.

Columns and labels:
[1] = target: T1, rat MCH 1 receptor (rMCH1R) (Rattus norvegicus, UniProt P97639); assay: Ligand binding assay (125I native-MCH), rMCH; conditions: rMCH1R expressed in HEK 293, membranes, 0.2 nM 125I native-MCH
T1 construct: expressed in transfected cells; host or cells: HEK 293 (membrane preparation)
Description: (§1) Human embryonic kidney cells (293 total) expressing either human, rat, or mouse MCH receptor were harvested from 150 mm culture dishes using PBS. Spinning at 1500 rpm for 2 minutes initially pelleted cells. The resulting pellet was then homogenized in 15 mL ice cold sucrose buffer (25 mM HEPES, 0.3 M sucrose, pH 7.4) with a motorized, glass fitted, Teflon® homogenizer. The homogenate was centrifuged at 48,000×g at 4° C. for 10 minutes, resuspended in 15 mL assay buffer (25 mM HEPES, 10 mM MgCl2, 0.2% BSA, 0.1 mg/mL STI, 0.1 mg/mL Pefabloc®, 1 μM Phosphoramidon, pH 7.4) with a Tissue-Tearor® (Biospec Products) and centrifuged again at 48,000×g for 10 minutes. The pellet was homogenized for a third time in 15 mL assay buffer using the Tissue-Tearor® and again centrifuged at 48,000×g for 10 minutes. The resulting pellet was resuspended in assay buffer at a wet weight concentration of 10-20 mg/mL.
(§2) Binding assays were determined as described below using mouse, rat or human MCH 1 receptors (mMCH1R, rMCH1R, and hMCH1R, respectively) expressed in HEK 293; IC50 values were calculated.
(§3) Binding assays were performed in 96-well U-bottom plates. Membranes (100 μg tissue) were incubated at 30° C. for 90 minutes in assay buffer with various peptides in the presence of 0.2 nM 125I native-MCH (Perkin-Elmer Life Sciences, Boston, Mass.) in 100 μL total volume. Non-specific binding was assessed in the presence of 1 μM cold native-MCH. The reaction was terminated by rapid filtration through Unfilter-96 GF/C glass fiber filter plates (FilterMate® 196 Harvester, Packard Instrument Co., Meriden, Conn.) pre-soaked in PBS/0.5% BSA, followed by three washes with 300 μL ice-cold water. Bound radioactivity was determined using a TopCount® microplate scintillation and luminescence counter (Packard Instrument Co., Meriden, Conn.). Nonlinear regression analyses of drug concentration curves were performed using GraphPad Prism® (GraphPad Software, Inc., San Diego, Calif.).

[2] = target: T2, human MCH 1 receptor (hMCH1R) (Homo sapiens, UniProt Q99705); assay: Ligand binding assay (125I native-MCH), hMCH; conditions: hMCH1R expressed in HEK 293, membranes, 0.2 nM 125I native-MCH
T2 construct: expressed in transfected cells; host or cells: HEK 293 (membrane preparation)
Description: as §1, §2, §3

rat MCH1 receptor = target: T3, rat MCH1 receptor (Rattus norvegicus, UniProt P97639); assay: rMCH FLIPR calcium mobilization functional assay; assay type: cell-based; conditions: CHOK1-Gqi cells
T3 construct: expressed in transfected cells
Description: Pharmacological analyses were conducted using either a HT-PS100 device (Axiom Biotechnologies, San Diego, Calif.), which provides high-resolution dose-response fluorometric measurements of [Ca^++]i mobilization, or using a FLIPR® device (Molecular Devices, Sunnyvale, Calif.).
Materials: Pharmacological analysis was conducted using a FLIPR® device (Molecular Devices, Sunnyvale, Calif.). CHOK1-Gqi cells were stably transfected with the rat MCH1 receptor and maintained under G418 antibiotic pressure. FLIPR® assay buffer consisted of phenol red-free DMEM+2.5 mM probenecid. MCH peptide (Amgen, Inc.) was reconstituted in assay buffer and served as the positive agonist control for all experiments. Test compounds were prepared as 10 mM stocks in 100% DMSO and diluted to a top end working concentration of 10 μM in 96 well black, flat bottom, collagen-I coated plates (Becton Dickinson, Bedford, Mass.).
Methods: CHOK1-Gqi cells stably expressing MCH1R were maintained in Dulbeco's modified Eagle's medium (GIBCO/Life Technologies, Rockville, Md.) supplemented with 2 mM glutamine and 10% dialyzed fetal bovine serum (HyClone, Logan, Utah) at 37° C., 5% CO2. Cells were harvested by 10′ treatment with Versene (GIBCO/Life Technologies) followed by trituration, washing twice with cold (4° C.) hybridoma medium (Serum/Protein free, with L-glutamine, sodium bicarbonate, MOPS buffer) (Sigma-Aldrich Corp, St. Louis, Mo.) and replated onto 96 well black, flat bottom, collagen-I coated plates to a density of 10,000 cells/well. The cells were then loaded with the fluorescent calcium indicator Fura-2 (Molecular Probes, Eugene, Oreg.) at 1.6 μM for 60′ at room temperature. The loaded cells were then washed twice with 90 μl/well of wash buffer (1×HBSS, 20 mM HEPES, 2.5 mM probenecid).
Receptor-stimulated intracellular calcium responses were detected using FLIPR® by monitoring increases in the Fura-2 fluorescence response.
Test compounds were screened for MCH1R activity in the FLIPR® for both agonist and antagonist action. Agonist mode challenges were conducted at a maximum gradient concentration of 1 μM. Antagonist activity was tested by 10 min pre-incubation of cells at a compound concentration of defined to be 300× the EC50 of MCH (typically 1 μM), with subsequent introduction of MCH at a concentration 5-fold of EC50 as determined in preliminary experiments.
Schild experiments were conducted on the FLIPR® for selected compounds by co-administering antagonist compounds together with MCH peptide. Several fixed concentrations of antagonist compounds were prepared in 10-fold increments, and presented to the cells in a gradient of increasing MCH concentration. Values for compound pA2 were calculated by linear regression of MCH EC50s as a function of antagonist concentration.

human MCH receptor = target: T4, human MCH receptor (Homo sapiens, UniProt Q99705); assay: hMCH FLIPR calcium mobilization functional assay; assay type: cell-based
T4 construct: expressed in transfected cells
T4 sequence (Q99705 whole entry): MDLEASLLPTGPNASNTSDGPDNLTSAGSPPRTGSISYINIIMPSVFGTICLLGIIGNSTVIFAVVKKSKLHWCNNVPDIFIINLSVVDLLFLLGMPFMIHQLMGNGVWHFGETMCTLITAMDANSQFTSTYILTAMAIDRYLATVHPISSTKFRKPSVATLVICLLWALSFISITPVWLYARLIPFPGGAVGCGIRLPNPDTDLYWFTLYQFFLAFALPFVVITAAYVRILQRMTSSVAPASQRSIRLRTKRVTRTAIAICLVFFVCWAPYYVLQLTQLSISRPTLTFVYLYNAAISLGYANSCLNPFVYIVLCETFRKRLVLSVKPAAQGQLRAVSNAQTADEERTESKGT

T2 sequence (Q99705 whole entry): as above
T1 sequence (P97639 whole entry): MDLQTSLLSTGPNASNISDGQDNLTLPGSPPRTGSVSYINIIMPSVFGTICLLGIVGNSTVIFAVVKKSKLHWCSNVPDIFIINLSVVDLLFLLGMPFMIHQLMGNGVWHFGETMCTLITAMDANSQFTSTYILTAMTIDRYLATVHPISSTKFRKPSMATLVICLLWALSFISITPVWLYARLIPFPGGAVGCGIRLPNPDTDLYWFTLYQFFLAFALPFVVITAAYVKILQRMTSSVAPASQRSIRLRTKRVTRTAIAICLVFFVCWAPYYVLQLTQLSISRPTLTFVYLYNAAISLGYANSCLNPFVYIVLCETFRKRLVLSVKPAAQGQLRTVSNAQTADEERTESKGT
T3 sequence (P97639 whole entry): as above

pIC50 ([1]; threshold 100 μM or less)	pIC50 ([2]; threshold 100 μM or less)	pKi (rat MCH1 receptor; threshold 100 nM or less)	pKi (rat MCH1 receptor; threshold 100 μM or less)	pIC50 ([1]; threshold 100 nM or less)	pIC50 ([2]; threshold 100 nM or less)	pKi (human MCH receptor; threshold 100 nM or less)	pKi (human MCH receptor; threshold 100 μM or less)	SMILES
≥ 4.00	≥ 4.00							Cc1ccc(Oc2ccc(C(=O)NCCN3CCCC3)cc2NC(=O)[C@@H]2C[C@H]2c2ccccc2)cc1C (stereo in doubt) [Compound 16, 4-(3,4-dimethylphenoxy)-3-[(2-phenyl-cyclopropanecarbonyl)amino]-N-(2-pyrrolidin-1-yl-ethyl)benzamide]
	≥ 4.00							O=C(NCCN1CCCC1)c1ccc(Oc2ccccc2)cc1 [Compound 8, 4-(phenyloxy)-N-(2-(1-pyrrolidinyl)ethyl)benzamide]
≥ 4.00	≥ 4.00							CC(=O)Nc1cc(C(=O)NCCN2CCCC2)ccc1Oc1ccc(C)c(C)c1 [Compound 10, 3-acetylamino-4-(3,4-dimethylphenoxy)-N-(2-pyrrolidin-1-yl-ethyl)benzamide]
≥ 4.00	≥ 4.00							Cc1ccc(Oc2ccc(C(=O)NCCN3CCCC3)cc2NC(=O)CCC2CCCC2)cc1C [Compound 12, 3-(3-cyclopentylpropionylamino)-4-(3,4-dimethylphenoxy)-N-(2-pyrrolidin-1-yl-ethyl)benzamide]
≥ 4.00	≥ 4.00							Cc1ccc(Oc2ccc(C(=O)NCCN3CCCC3)cc2NC(=O)Cc2ccccc2)cc1C [Compound 13, 4-(3,4-dimethylphenoxy)-3-phenylacetylarnino-N-(2-pyrrolidin-1-yl-ethyl)benzamide]
≥ 4.00	≥ 4.00	≥ 7.00	≥ 4.00					Cc1ccc(Oc2ccc(C(=O)NCCN3CCCC3)cc2NC(=O)/C=C/c2ccccc2)cc1C [Compound 15, 4-(3,4-dimethylphenoxy)-3-(3-phenyl-acryloylamino)-N-(2-pyrrolidin-1-yl-ethyl)benzamide]
≥ 4.00	≥ 4.00							Cc1ccc(Oc2ccc(C(=O)NCCN3CCCC3)cc2NC(=O)c2ccc3ccccc3c2)cc1C [Compound 17, naphthalene-2-carboxylic acid [2-(3,4-dimethylphenoxy)-5-(2-pyrrolidin-1-yl-ethylcarbamoyl)phenyl]amide]
≥ 4.00	≥ 4.00							CCNC(=O)Nc1cc(C(=O)NCCN2CCCC2)ccc1Oc1ccc(C)c(C)c1 [Compound 18, 4-(3,4-dimethylphenoxy)-3-(3-ethylureido)-N-(2-pyrrolidin-1-yl-ethyl)benzamide]
	≥ 4.00							Cc1ccc(Oc2ccc(C(=O)NCCN)cc2NC(=O)CCc2ccccc2)cc1C [Compound 20, N-(2-aminoethyl)-4-(3,4-dimethylphenoxy)-3-(3-phenylpropionylamino)benzamide]
			≥ 4.00					O=C(CCc1ccccc1)Nc1cc(C(=O)NCCN2CCCC2)ccc1Oc1ccc2ccccc2c1 [Compound 22]
≥ 4.00	≥ 4.00		≥ 4.00					COc1ccccc1NC(=O)Nc1cc(C(=O)NCCN2CCCC2)ccc1Oc1ccc(C)c(C)c1 [Compound 30, 4-(3,4-dimethylphenoxy)-3-[3-(2-methoxyphenyl)ureido]-N-(2-pyrroliidin-1-yl-ethyl)benzamide]
≥ 4.00	≥ 4.00	≥ 7.00	≥ 4.00	≥ 7.00	≥ 7.00			Cc1ccc(Oc2ccc(C(=O)NCCN3CCCC3)cc2NC(=O)Nc2ccc(Cl)cc2Cl)cc1C [Compound 31, 3-[3-(2,4-dichlorophenyl)ureido]-4-(3,4-dimethylphenoxy)-N-(2-pyrrolidin-1-yl-ethyl)benzamide]
≥ 4.00	≥ 4.00	≥ 7.00	≥ 4.00		≥ 7.00			Cc1ccc(Oc2ccc(C(=O)NCCN3CCCC3)cc2NC(=O)Nc2ccc(Oc3ccccc3)cc2)cc1C [Compound 32, 4-(3,4-dimethylphenoxy)-3-[3-(4-phenoxyphenyl)ureido]-N-(2-pyrrolidin-1-yl-ethyl)benzamide]
≥ 4.00	≥ 4.00		≥ 4.00		≥ 7.00			Cc1ccc(Oc2ccc(C(=O)NCCN3CCCC3)cc2NC(=O)Nc2ccc(-c3ccccc3)cc2)cc1C [Compound 33]
≥ 4.00	≥ 4.00	≥ 7.00	≥ 4.00	≥ 7.00	≥ 7.00			Cc1ccc(Oc2ccc(C(=O)NCCN3CCCC3)cc2NC(=O)Nc2cccc(F)c2)cc1C [Compound 39, 4-(3,4-dimethylphenoxy)-3-[3-(3-fluorophenyl)ureido]-N-(2-pyrrolidin-1-yl-ethyl)benzamide]
≥ 4.00	≥ 4.00							Cc1ccc(Oc2ccc(C(=O)NCCN3CCCC3)cc2NC(=O)N(c2ccccc2)c2ccccc2)cc1C [Compound 42, 4-(3,4-dimethylphenoxy)-3-(3,3-diphenylureido)-N-(2-pyrrolidin-1-yl-ethyl)benzamide]
≥ 4.00	≥ 4.00							Cc1ccc(Oc2ccc(C(=O)NCCN3CCCC3)cc2NC(=O)N(C)c2ccccc2)cc1C [Compound 43, 4-(3,4-dimethylphenoxy)-3-(3-methyl-3-phenylureido)-N-(2-pyrrolidin-1-yl-ethyl)benzamide]
≥ 4.00			≥ 4.00	≥ 7.00		≥ 7.00	≥ 4.00	Cc1cc(Oc2ccc(C(=O)NCCN3CCCC3)cc2NC(=O)Nc2cccc(F)c2)ccc1F [Compound 51, 4-(4-fluoro-3-methylphenoxy)-3-[3-(3-fluorophenyl)ureido]-N-(2-pyrrolidin-1-yl-ethyl)benzamide]
≥ 4.00				≥ 7.00			≥ 4.00	O=C(Nc1cccc(F)c1)Nc1cc(C(=O)NCCN2CCCC2)ccc1Oc1ccc(Cl)c(Cl)c1 [Compound 52, 4-(3,4-dichlorophenoxy)-3-[3-(3-fluorophenyl)ureido]-N-(2-pyrrolidin-1-yl-ethyl)benzamide]
≥ 4.00				≥ 7.00				O=C(Nc1cccc(F)c1)Nc1cc(C(=O)NCCN2CCCC2)ccc1Oc1ccccc1 [Compound 61, 3-[3-(3-fluorophenyl)ureido]-4-phenoxy-N-(2-pyrrolidin-1-yl-ethyl)benzamide]
≥ 4.00	≥ 4.00			≥ 7.00	≥ 7.00			O=C(Nc1cc(F)cc(F)c1)Nc1cc(C(=O)NCCN2CCCC2)ccc1Oc1ccc(Cl)c(Cl)c1 [Compound 66, 4-(3,4-dichlorophenoxy)-3-[3-(3,5-difluorophenyl)ureido]-N-(2-pyrrolidin-1-yl-ethyl)benzamide]
